Measured values reported in US11643428B2, “Therapeutic drug for neurodegenerative disease and application thereof” (SHANGHAI PHARMACEUTICALS HOLDING CO., LTD., priority 2018, dated 2023).

Assays:
[1] = test system: neuroblastoma cells SK-N-SH; assay: Total Aβ in supernatant of SK-N-SH cells by ELISA; assay type: cell-based; details: 24 hours
Protocol: Culture of neuroblastoma cells SK-N-SH and Aβ detection: SK-N-SH cells were cultured in DMEM, plated to 24 well plates and cultured for 24 hours, then PL201 (0, 30, 100, and 300 μM) was added. After co-incubation for 24 hours, the protein level of total Aβ in supernatant was detected by ELISA.
Culture of neuroblastoma cells SK-N-SH and Aβ detection: SK-N-SH cells were cultured in DMEM, plated to 24 well plates and cultured for 24 hours, then PL202 (0, 30, and 100 μM) was added. After co-incubation for 24 hours, protein level of total Aβ in supernatant was detected by ELISA.
Culture of neuroblastoma cells SK-N-SH and Aβ detection: SK-N-SH cells were cultured in DMEM, plated to 24 well plates and cultured for 24 hours, then PL171 (300 μM) was added. After co-incubation for 24 hours, protein level of total Aβ in supernatant was detected by ELISA.
Culture of neuroblastoma cells SK-N-SH and Aβ detection: SK-N-SH cells were cultured in DMEM, plated to 24 well plates and cultured for 24 hours, then PL172 (300 μM) was added. After co-incubation for 24 hours, protein level of total Aβ in supernatant was detected by ELISA.

mouse BV-2 cell line = assay: Expression of inflammatory factors in LPS-treated BV-2 cells by QPCR; assay type: cell-based; details: PL202 30, 100, 300 μM, LPS 300 ng/ml, 24 hours
Protocol: Neuroinflammation in the brain of AD is one of the causes of cognitive decline. Microglial cells are the key cells that mediate neuroinflammation. In this example, the inventors have explored whether PL201 has the effect of inhibiting neuroinflammation by detecting the expressions of inflammatory factors on mouse BV-2 cell line.
BV-2 cells were cultured in DMEM, plated to 24 well plates and cultured for 24 hours, then PL201 (0, 10, 30, and 100 μM) and LPS (300 ng/ml) were added. After co-incubation for 24 hours, Trizol was used to extract RNA and the expressions of related inflammatory factors were detected by QPCR.
Mouse BV-2 cells were cultured in DMEM, plated to 24 well plates and cultured for 24 hours, then PL202 (0, 30, 100, and 300 μM) and LPS (300 ng/ml) were added. After co-incubation for 24 hours, Trizol was used to extract RNA and the expressions of related inflammatory factors were detected by QPCR.

Structure (SMILES)	Aβ production (total Aβ in supernatant) ([1]; 300 μM)	expression of inflammatory factor IL-1β (mouse BV-2 cell line)	expression of inflammatory factor iNOS (mouse BV-2 cell line)	Aβ production (total Aβ in supernatant) ([1]; 30, 100 μM)
COc1cc(/C=C/C(=O)NC2OC(C)C(O)C(O)C2O)ccc1O [PL171, (1-amino-β-L-rhamnopyranosyl) ferulamide]	significantly inhibited			
COc1cc(/C=C/C(=O)NC2OC(C)C(O)C(O)C2O)ccc1O [PL172, (1-amino-α-L-rhamnopyranosyl) ferulamide]	significantly inhibited			
COc1cc(/C=C/C(=O)OC2OC(C)C(O)C(O)C2O)ccc1O [PL202, (β-L-rhamnopyranosyl) ferulic acid ester]		significantly inhibited	significantly inhibited	significantly inhibited
